{"source": "paper PMC10779222", "about": "“Copper(II) Complexes with 1-(Isoquinolin-3-yl)heteroalkyl-2-ones: Synthesis, Structure and Evaluation of Anticancer, Antimicrobial and Antioxidant Potential” (International Journal of Molecular Sciences, 2023)", "key": {"[1]": {"system": "T98G cells", "details": "C2 at 0.25 µg/mL (non-cytotoxic), drugs at IC50 or 100 µg/mL, 24 h, MTT", "experimental": "Next, T98G or HepG2 cells were incubated for 24 h with medium containing a mixture of the respective drugs mixed with the highest non-toxic concentration of C2 (CX). The viability of cells was evaluated using MTT assay, as described above. ANOVA analysis (with Tukey’s post hoc test) was performed in order to examine the possible interactions between compound C2 (CX) and ETO, CIS, 5-FU and TMZ."}, "[2]": {"system": "A375, HepG2, LS-180, T98G and CCD-1059Sk cell lines", "assay": "MTT cytotoxicity assay, summary statements over several cell lines", "type": "cell-based", "details": "range over HepG2 and T98G", "experimental": "(§1) Cytotoxic activity of the investigated compounds was evaluated against T98G (glioblastoma), HepG2 (hepatoma), LS-180 (colon cancer) and A375 (melanoma) cell lines. Human normal skin fibroblasts, CCD-1059Sk (CRL-2072), were used as reference (non-cancerous) cells. All of the cell lines were obtained from American Type Culture Collection (ATCC; Manassas, VA, USA). A375, T98G and CCD-1059Sk cells were cultured in Dulbecco’s Modified Eagle’s Medium (DMEM) (Sigma Aldrich, St. Louis, MO, USA) supplemented with 10% FBS, penicillin (100 U/mL) and streptomycin (100 μg/mL). LS-180 and HepG2 cells were cultured in Eagle’s Minimum Essential Medium supplemented with 10% FBS, penicillin (100 U/mL) and streptomycin (100 μg/mL). All of the cells were maintained at 37 °C in a humidified atmosphere of 5% CO2. The compounds were dissolved in DMSO in order to obtain stock solutions. At the day of the experiment, the suspension of cells (1 × 10^5 cells/mL) was distributed onto 96-well plates at a volume of 100 μL/well. After attachment, the cells were treated with the increased concentrations of the tested compounds in medium containing 2% FBS and incubated for 24 h. Then, the medium was removed from wells, and cells were rinsed with PBS. Afterwards, 15 μL of MTT working solution (5 mg/mL in PBS) was added to each well, and the plates were incubated for 3 h. Subsequently, 100 μL of 10% SDS solution was added to each well in order to dissolve the precipitated formazan crystals. After overnight incubation at 37 °C, the absorbance of the obtained solution was measured at λ = 570 nm using a microplate reader (Epoch, BioTek Instruments, Inc., Winooski, VT, USA). At least two independent experiments were performed in triplicate. […] IC50 values of the investigated derivatives and positive control (etoposide) were calculated using the IC50 online calculator [101]."}, "[3]": {"system": "LS-180 (colon cancer)", "assay": "MTT cytotoxicity assay on LS-180 cells", "type": "cell-based, human", "details": "24 h incubation", "experimental": "as §1"}, "[4]": {"system": "T98G cells", "assay": "Cell cycle analysis (image cytometry, DAPI) in T98G", "type": "cell-based, human", "details": "24 h, C2 at IC50 concentration", "experimental": "(§2) Cell cycle analysis of T98G and HepG2 cells pretreated with copper(II) complex C2 (CX) (at IC50 concentration) was performed on NucleoCounter NC-3000 Image Cytometer (ChemoMetec, Lillerod, Denmark). The investigated cells were seeded on 6-well culture plates (Corning Inc., New York, NY, USA) at the density of 1 × 10^5 cells/mL and cultured in the respective medium at 37 °C in a humidified atmosphere of 5% CO2. When the cells reached approximately 80% confluence, they were treated with C2 (CX), at a concentration of IC50, for 24 h. Subsequently, the cells were detached with trypsine, suspended in 250 μL of lysis buffer (Solution 10) supplemented with DAPI (10 μg/mL) and incubated for 5 min at 37 °C. Following this, stabilization buffer (Solution 11) was added, and the obtained cell suspension was applied on NC-slide and analyzed using NucleoCounter NC-3000 Image Cytometer equipped with NucleoView NC-3000^TM software (ChemoMetec A/S, Lillerod, Denmark). Experiments were repeated three times, and the measurements in each experiment were run in duplicate."}, "[5]": {"system": "T98G (glioblastoma)", "assay": "MTT cytotoxicity assay on T98G cells", "type": "cell-based", "experimental": "as §1"}, "[6]": {"system": "HepG2 cells", "assay": "Cell cycle analysis (image cytometry, DAPI) in HepG2", "type": "cell-based, human", "details": "C2 at IC50 concentration", "experimental": "as §2"}, "[7]": {"system": "CCD-1059Sk (human normal skin fibroblasts)", "assay": "MTT cytotoxicity assay on non-cancerous fibroblasts", "type": "cell-based", "details": "24 h incubation, non-cancerous cells", "experimental": "as §1"}}}
{"smiles": "O=C1NCCN1c1cc2ccccc2cn1.O=C1NCCN1c1cc2ccccc2cn1.[Cl][Cu][Cl]", "note": "[C2, Dichloro{bis[1-(Isoquinolin-3-yl)imidazolidin-2-one]}copper(II)]", "values": [{"measurement": "effect on cytotoxicity of anticancer drugs, T98G", "setting": "[1]", "result": "statistically significantly improved the cytotoxic effects of ETO, 5-FU and TMZ"}, {"measurement": "IC50, HepG2 and T98G", "setting": "[2]", "result": "5.04 to 6.97", "unit": "µg/mL"}, {"measurement": "IC50 ± SD, LS180", "setting": "[3]", "result": "5.88 ± 0.40", "unit": "µg/mL"}, {"measurement": "effect on cell cycle progression, T98G", "setting": "[4]", "result": "cell cycle arrest in the G2/M phase"}, {"measurement": "highest concentration that did not affect the viability of T98G cells", "setting": "[5]; MTT assay", "result": 0.25, "unit": "µg/mL"}, {"measurement": "IC50 ± SD, T98G", "setting": "[5]; MTT, 24 h incubation", "result": "6.97 ± 0.52", "unit": "µg/mL"}, {"measurement": "selectivity index (SI), T98G", "setting": "[5]; T98G compared with CCD-1059-Sk", "result": 3.14}, {"measurement": "effect on cell cycle progression, HepG2", "setting": "[6]; 24 h", "result": "cell cycle arrest in the sub-G1 phase"}, {"measurement": "DNA content in the sub-G1 phase", "setting": "[6]; HepG2, 24 h, control cells 10%, p < 0.0001", "result": 29, "unit": "%"}, {"measurement": "IC50 ± SD, CCD-1059-Sk", "setting": "[7]", "result": "21.86 ± 1.03", "unit": "µg/mL"}]}
